Measured values from article PMC6093650, “Antidepressive and anxiolytic effects of ostruthin, a TREK-1 channel activator” (PLoS ONE, 2018).
pIC50: −log10 of the molar value.

Key:
TASK-3 = biological target: T1, TASK-3 (Homo sapiens, UniProt Q9NPC2); assay: whole-cell patch-clamp of TASK-3 currents in 293T cells; format: cell-based
T1 construct: expressed in transfected cells; host or cells: 293T (transient, calcium-phosphate transfection)
Text: (§1) For recordings of K^+ channel currents, we prepared stable cell lines for TREK-1, TWIK-related acid-sensitive K^+ channel (TASK-1), strongly inwardly rectifying K^+ channel (Kir2.1), and human ether-a-go-go-related gene (HERG-1) channels and transiently expressed other channels in 293T cells using a calcium-phosphate transfection method. For the establishment of the stable lines, we used lentiviral vectors, and the preparation methods for the lentiviral vectors were described in our previous report. TR-1 cells, which stably expressed TREK-1 channel and were grown on a small cover glass (3 × 18 mm), were placed in a recording chamber with an internal volume of 200 μl. Whole-cell currents were recorded in Tyrode solution using an Axopatch 200B amplifier (Axon Instruments, Foster City, CA) at 25°C. Tyrode solution contained (in mM): NaCl 140, KCl 5.4, NaH2PO4 0.33, CaCl2 2, MgCl2 1, HEPES 5, and glucose 5.5 (pH 7.4 adjusted with NaOH). […] Perfusion (100 μl/min) was continued to maintain the water level throughout recordings. pH and osmotic pressure of solutions were measured with a pH meter (Horiba, Kyoto, Japan) and a freezing point osmometer (Knauer, Berlin, Germany), respectively. […]

Kir2.1 = biological target: T2, Kir2.1 (Homo sapiens, UniProt P63252); assay: whole-cell patch-clamp of Kir2.1 currents in 293T cells; format: cell-based; details: n = 5, read-out: IC50 Kir 2.1
T2 construct: expressed in transfected cells
T2 sequence (P63252 1-427): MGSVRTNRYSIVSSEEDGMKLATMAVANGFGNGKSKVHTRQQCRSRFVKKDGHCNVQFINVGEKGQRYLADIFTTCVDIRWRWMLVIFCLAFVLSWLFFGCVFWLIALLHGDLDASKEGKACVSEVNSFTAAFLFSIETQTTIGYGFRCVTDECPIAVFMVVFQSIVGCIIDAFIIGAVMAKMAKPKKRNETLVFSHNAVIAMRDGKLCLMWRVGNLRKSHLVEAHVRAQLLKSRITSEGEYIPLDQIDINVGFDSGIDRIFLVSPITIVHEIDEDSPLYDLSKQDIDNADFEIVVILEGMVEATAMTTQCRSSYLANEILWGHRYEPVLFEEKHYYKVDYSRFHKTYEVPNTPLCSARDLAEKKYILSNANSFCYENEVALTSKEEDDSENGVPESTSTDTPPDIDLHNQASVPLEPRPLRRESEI
Text: as §1

c-Fos immunoreactivity = assay: anti-c-Fos immunostaining of mouse brain nuclei; format: in vivo, mice
Procedure: The mouse was put into an anesthetizing jar and isoflurane (>0.2 ml) was added to the jar. After confirming that mouse was deeply anesthetized, its brain was fixed by transcardiac perfusion with 4% paraformaldehyde in PBS. The brains were sliced coronally (100 μm in thickness) using a microslicer (PRO7, Dosaka, Kyoto, Japan). The free-floating slices were reacted with an anti-c-Fos antibody (1: 200, goat, Santa Cruz, Dallas, TX) dissolved in PBS containing 0.3% BSA and 0.3% Triton-X-100, at 4°C for 48 h. The immunoreaction was visualized using a secondary antibody (rabbit anti-goat IgG, Vectastain Elite ABC-HRP Kit, Vector Labs, Burlingame, CA) and 3,3'-Diaminobenzidine (DAB, Tokyo Chemical Industry, Tokyo, Japan) at room temperature in accordance with the manufacturer’s instructions.
For statistical analysis, the number of c-Fos-immunoreactive cells was quantified using the Image-J software. Briefly, fields (0.16 mm^2) of c-Fos immunoreactivity were acquired by a microscope IX70 (Olympus) using a CCD camera. DAB-positive nuclei, of which diameters were longer than 7 μm, were considered as anti-c-Fos-immunoreactive neurons. The immunoreactive cell numbers were normalized to cells/mm^2.

[1] = 5 mg/kg, 30 min after tail suspension stress, n = 4

T1 sequence (Q9NPC2 whole entry, species assumed): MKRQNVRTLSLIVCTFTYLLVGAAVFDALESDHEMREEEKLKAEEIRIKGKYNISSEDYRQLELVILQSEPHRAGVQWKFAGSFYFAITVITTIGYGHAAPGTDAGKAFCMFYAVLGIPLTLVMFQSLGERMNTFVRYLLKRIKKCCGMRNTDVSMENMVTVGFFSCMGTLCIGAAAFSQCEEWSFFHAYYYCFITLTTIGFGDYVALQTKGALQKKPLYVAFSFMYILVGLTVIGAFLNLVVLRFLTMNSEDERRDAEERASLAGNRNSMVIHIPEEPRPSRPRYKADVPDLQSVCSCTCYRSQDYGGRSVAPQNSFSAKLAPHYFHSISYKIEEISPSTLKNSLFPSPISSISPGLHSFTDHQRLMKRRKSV

SMILES: CC(C)=CCC/C(C)=C/Cc1cc2ccc(=O)oc2cc1O [ostruthin]
- pIC50 (TASK-3): 3.64
- pIC50 (Kir2.1): 3.70
- stress-induced c-Fos immunoreactivity in most nuclei (PVN, PVT, CeA, BLA, DRD, DRV) (c-Fos immunoreactivity; [1]): no significant differences
- stress-induced increase in c-Fos immunoreactivity in the lateral septum (LS) (c-Fos immunoreactivity; [1]): significantly suppressed
- anti-c-Fos immunoreactivity in non-stressed animals (c-Fos immunoreactivity; fixed 30 min after administration, vs PBS (data not shown)): no difference
